Experimental data as given in patent publication US8252833B2, “Benzo (f) isoindol-2-ylphenyl acetic acid derivatives as EP4 receptor agonists” (Glaxo Group Limited, priority 2006, dated 2012).

Legend:
[1] = target: T1, recombinant human prostanoid EP4 receptor (Homo sapiens, UniProt P35408); test: In vitro cAMP assay in HEK-EP4 cells; type: cell-based
T1 construct: expressed in transfected cells; host or cells: HEK-293(T) cells (HEK-EP4, G418 selected)
Method: Cells were grown as a monolayer culture in DMEM-F12/F12 containing glutamax II (Gibco) and supplemented with 10% foetal bovine serum (Gibco) and 0.4 mg.ml-1 G418. HEK-EP4 cells were pre-treated 24 hr and 30 mins prior to the experiment with 10 μM indomethacin and harvested using Versene containing 10 μM indomethacin. The cells were resuspended in assay buffer (DMEM:F12, 10 μM indomethacin and 200 μM IBMX) at 1×10^6 cells per ml and incubated for 20 min at 37° C. Thereafter, 50 μl of cells were added to 50 μl agonist (compound of Formula (I)) and incubated at 37° C. for 4 minutes before stopping reactions with 1000 of 1% triton X-100. cAMP levels in the cell lysates were determined using a competition binding assay. In this assay the ability of cell lysates to inhibit 3H-cAMP (Amersham) binding to the binding subunit of protein kinase A was measured and cAMP levels were calculated from a standard curve. The data for each compound were expressed as a % of the response to a 10 nM maximal concentration of the standard agonist PGE2. For each compound the maximal response and concentration of compound causing 50% of its maximal response were calculated. Intrinsic activity is expressed relative to the maximal response to PGE2. Unless stated, reagents were purchased commercially from Sigma.

[2] = system: FCA induced hypersensitivity; test: FCA induced hypersensitivity in the rat, weight-bearing readout; type: in vivo; conditions: for Effect of low dose when administered alone: low (ED20) doses alone, p.o. (FIG. 1); for ED20 dose: p.o., reversal of FCA induced hypersensitivity
Method: • At the start of the study, naïve weight bearing readings were taken. The hypersensitivity to pain was measured using the Rat incapacitance tester (Linton instruments). • All male rats (RH strain, 180-220 g) then received an intraplantar injection of 100 ul of FCA (Freund's complete adjuvant) into the left hind paw. The ECA was sonicated for 15 minutes prior to use. • 24 hours after administration of the FCA, pre-dose weight bearing readings were taken. All animals were then ranked and randomised for dosing according to their FCA window (predose difference in grams—naïve difference in grams). Rats with FCA window less than 30 were excluded from the study. • Animals were then dosed orally according to ranking and randomisation. Two studies were carried out as follows: • In the first study the ED20 doses of Example 9 and paracetamol were combined using the following protocol, • (1) Vehicle (1% methylcellulose) p.o. • (2) Paracetamol (60 mg/kg) p.o.* • (3) Example 9 (0.1 mg/kg) p.o.* • (4) Example 9 (0.1 mg/kg)+Paracetamol (60 mg/kg) p.o.** • (5) Celecoxib (10 mg/kg) p.o. • *ED20 dose • **Example 9 was dosed initially followed by paracetamol 30 minutes later. • In the second study a fixed dose ratio combination with Example 9 and paracetamol was completed using the following protocol, • (1) Vehicle (1% methylcellulose) p.o.+Vehicle (1% methylcellulose) p.o. • (2) Example 9, 0.003 mg/kg p.o.+Paracetamol, 1.8 mg/kg p.o. • (3) Example 9, 0.01 mg/kg p.o.+Paracetamol, 6 mg/kg p.o. • (4) Example 9, 0.03 mg/kg p.o.+Paracetamol, 18 mg/kg p.o. • (5) Example 9, 0.1 mg/kg p.o.+Paracetamol, 60 mg/kg p.o. • (6) Vehicle (1% methylcellulose) p.o.+Celecoxib, 10 mg/kg p.o. • Animals were assessed in the weight bearing apparatus 1 hour after the dose of paracetamol. • The study was blind and randomised by FCA window using a Latin square method. Preparation Details • All compounds were ground using a pestle and mortar prior to adding the vehicle (1% methylcellulose). Dose volume 5 ml/kg. • All doses were sonicated and stirred before administration. • In this study a positive control was also tested (Celecoxib). […] Statistical Analysis • % reversals were calculated by using the naïve, pre-dose and post dose values as follows: % Reversal=[(Pre-dose−Post-dose)/(Pre-dose−Naïve)]×100. • Graphs and ED50 values were calculated using Prism3. • Statistical analysis was carried out using ANOVA and Fischer LSD test from statistical package Statistica 6. • Synergy was statistically calculated using the synergy macro. The logED50 values and the Standard errors for the individual molecules and the combination study are obtained from Statistica 6 and put into the macro. The fixed dose ratio is specified and the macro then calculates whether the combination was statistically synergistic. It compares the combination data to the theoretical addition of the individual compounds. Results: Percentage Reversal of the Established FCA-Induced Hypersensitivity: […]

[3] = Oral pharmacokinetics in the rat; conditions: in vivo, read-out: oral pharmacokinetic half life (converted)

T1 sequence (P35408 whole entry): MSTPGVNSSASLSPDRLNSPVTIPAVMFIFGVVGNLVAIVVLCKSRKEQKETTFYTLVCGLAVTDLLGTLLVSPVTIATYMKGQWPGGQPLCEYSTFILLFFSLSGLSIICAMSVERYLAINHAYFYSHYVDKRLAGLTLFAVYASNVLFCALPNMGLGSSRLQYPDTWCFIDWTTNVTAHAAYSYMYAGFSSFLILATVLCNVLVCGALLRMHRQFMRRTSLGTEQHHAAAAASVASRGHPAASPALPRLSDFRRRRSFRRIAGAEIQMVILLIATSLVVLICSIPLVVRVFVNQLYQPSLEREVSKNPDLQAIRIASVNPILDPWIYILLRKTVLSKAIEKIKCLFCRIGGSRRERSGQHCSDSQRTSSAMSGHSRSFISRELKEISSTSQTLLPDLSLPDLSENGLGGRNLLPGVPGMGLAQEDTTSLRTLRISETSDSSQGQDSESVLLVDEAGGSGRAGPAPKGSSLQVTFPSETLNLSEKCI

Row | Structure (SMILES) | EC50 [1] [nM] | Emax ([1]; maximal response relative to the maximal response to PGE2 (10 nM), read-out: average intrinsic activity) [%] | EC50 at 3 mg/kg ([2]; Rattus norvegicus) [nM] | reversal of eFCA-induced hypersensitivity ([2]; dosed alone at 3 mg/kg, rat) [%] | Effect of low dose when administered alone [2] | ED20 dose ([2]; rat) [mg/kg] | half-life [3] [h]
1 | CCOc1c2c(c(OCC)c3ccccc13)C(=O)N(c1ccc(CC(=O)O)c(F)c1)C2 [Example 9, {4-[4,9-Bis(ethyloxy)-1-oxo-1,3-dihydro-2H-benzo[f]isoindol-2-yl]-2-fluorophenyl}acetic acid] | 39.8 | 68 | 600 | 80 | ineffective | 0.1 | 7.6
2 | CC(=O)Nc1ccc(O)cc1 [Paracetamol, paracetamol, reference compound] | – | – | – | – | ineffective | 60 | –
